Test results: ChEMBL document CHEMBL1909046, “DrugMatrix in vitro pharmacology data”

Columns and labels:
Cytochrome P450 2D6 = Cytochrome P450 2D6 (Homo sapiens, UniProt P10635); details: bti-tn-5b1-4; also: in other assays of this panel Not Active means under 50% inhibition at 10 µM
[1] = DRUGMATRIX: Nicotinic Acetylcholine radioligand binding (ligand: [125I] Epibatidine); format: cell membranes, Membrane; details: imr-32; Not Active = under 50% inhibition at 10 µM
[2] = molecular target: T1, Neuropeptide Y receptor type 1 (Homo sapiens, UniProt P25929); format: cell membranes, Membrane; details: sk-n-mc; also: in other assays of this panel Not Active means under 50% inhibition at 10 µM
T1 sequence (P25929 whole entry): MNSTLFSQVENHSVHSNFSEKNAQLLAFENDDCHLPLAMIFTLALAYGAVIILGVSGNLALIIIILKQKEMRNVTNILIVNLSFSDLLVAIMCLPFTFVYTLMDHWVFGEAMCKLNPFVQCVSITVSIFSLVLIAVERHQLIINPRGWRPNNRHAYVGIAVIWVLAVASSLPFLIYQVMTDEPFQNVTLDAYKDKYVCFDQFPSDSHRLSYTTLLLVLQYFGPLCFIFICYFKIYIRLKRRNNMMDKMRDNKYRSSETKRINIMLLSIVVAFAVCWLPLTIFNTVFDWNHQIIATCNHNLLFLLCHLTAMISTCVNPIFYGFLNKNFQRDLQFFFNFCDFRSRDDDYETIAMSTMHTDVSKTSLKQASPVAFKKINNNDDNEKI

[3] = DRUGMATRIX: Tumor Necrosis Factor (TNF), Non-Selective radioligand binding (ligand: [125I] TNF-alpha); format: cell membranes, Membrane; details: u-937; Not Active = under 50% inhibition at 10 µM
[4] = DRUGMATRIX: Glutamate, NMDA, Phencyclidine radioligand binding (ligand: [3H] TCP); format: cell membranes, Rattus norvegicus, Wistar, Cerebral cortex, Membrane; details: Not Active = under 50% inhibition at 10 µM
[5] = molecular target: T2, 3-hydroxy-3-methylglutaryl-coenzyme A reductase (Homo sapiens, UniProt P04035); parameters: species or system Escherichia coli;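 also: enzyme inhibition assay of HMG-CoA reductase using radiolabeled [14C]HMG-CoA as substrate; in other assays of this panel Not Active means under 50% inhibition at 10 µM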
T2 sequence (P04035 whole entry): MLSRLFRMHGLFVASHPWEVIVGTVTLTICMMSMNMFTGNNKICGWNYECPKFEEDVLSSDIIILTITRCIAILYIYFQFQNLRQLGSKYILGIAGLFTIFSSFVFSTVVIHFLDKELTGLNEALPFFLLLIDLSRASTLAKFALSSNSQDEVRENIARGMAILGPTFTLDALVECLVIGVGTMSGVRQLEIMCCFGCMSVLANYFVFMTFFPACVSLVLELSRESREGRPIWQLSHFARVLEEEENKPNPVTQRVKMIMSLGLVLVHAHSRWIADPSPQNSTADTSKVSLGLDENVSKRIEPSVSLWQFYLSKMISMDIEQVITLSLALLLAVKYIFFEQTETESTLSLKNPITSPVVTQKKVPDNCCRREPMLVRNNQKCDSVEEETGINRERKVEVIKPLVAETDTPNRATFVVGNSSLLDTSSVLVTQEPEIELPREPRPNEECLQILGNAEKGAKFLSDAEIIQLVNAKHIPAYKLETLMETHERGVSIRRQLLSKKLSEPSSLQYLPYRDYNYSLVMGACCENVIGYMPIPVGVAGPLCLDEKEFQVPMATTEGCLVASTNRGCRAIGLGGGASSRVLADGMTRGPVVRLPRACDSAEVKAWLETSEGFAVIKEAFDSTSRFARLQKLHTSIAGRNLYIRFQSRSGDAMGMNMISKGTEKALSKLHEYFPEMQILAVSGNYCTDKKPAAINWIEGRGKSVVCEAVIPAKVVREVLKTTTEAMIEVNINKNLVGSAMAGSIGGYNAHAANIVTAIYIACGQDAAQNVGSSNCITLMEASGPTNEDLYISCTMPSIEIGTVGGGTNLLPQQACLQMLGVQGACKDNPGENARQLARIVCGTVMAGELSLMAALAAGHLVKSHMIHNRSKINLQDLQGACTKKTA

Adenosine receptor A1 = molecular target: T3, Adenosine receptor A1 (Homo sapiens, UniProt P30542); format: cell membranes, CHO, Membrane; details: cho;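 also: radioligand binding assay at the adenosine A1 receptor, with DPCPX serving as the labelled ligand; in other assays of this panel Not Active means under 50% inhibition at 10 µM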
T3 sequence (P30542 whole entry): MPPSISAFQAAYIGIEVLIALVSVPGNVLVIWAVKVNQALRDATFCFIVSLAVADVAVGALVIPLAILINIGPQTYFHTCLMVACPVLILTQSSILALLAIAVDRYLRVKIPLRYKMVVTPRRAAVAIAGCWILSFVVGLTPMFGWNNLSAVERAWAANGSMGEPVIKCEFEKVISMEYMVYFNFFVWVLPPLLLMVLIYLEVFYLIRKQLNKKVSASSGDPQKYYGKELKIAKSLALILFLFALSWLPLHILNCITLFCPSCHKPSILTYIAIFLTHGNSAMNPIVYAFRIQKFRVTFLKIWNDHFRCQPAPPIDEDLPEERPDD

Sequence of Cytochrome P450 2D6 (P10635 whole entry): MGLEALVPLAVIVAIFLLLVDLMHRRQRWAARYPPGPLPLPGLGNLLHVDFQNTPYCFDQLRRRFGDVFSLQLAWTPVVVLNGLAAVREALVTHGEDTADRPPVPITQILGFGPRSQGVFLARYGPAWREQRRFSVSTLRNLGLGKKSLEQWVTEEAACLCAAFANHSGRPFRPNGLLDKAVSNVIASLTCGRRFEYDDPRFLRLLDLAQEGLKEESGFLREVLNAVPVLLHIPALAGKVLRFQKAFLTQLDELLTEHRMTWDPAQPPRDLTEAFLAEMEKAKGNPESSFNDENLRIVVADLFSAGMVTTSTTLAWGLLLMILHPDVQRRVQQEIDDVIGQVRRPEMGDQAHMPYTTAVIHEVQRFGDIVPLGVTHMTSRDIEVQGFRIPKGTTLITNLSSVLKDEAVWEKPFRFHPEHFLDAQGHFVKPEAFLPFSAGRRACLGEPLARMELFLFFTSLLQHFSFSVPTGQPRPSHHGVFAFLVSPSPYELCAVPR

CN(C)[C@@H]1C(O)=C(C(N)=O)C(=O)[C@@]2(O)C(O)=C3C(=O)c4c(O)ccc(Cl)c4[C@@](C)(O)[C@H]3C[C@@H]12 [CHLORTETRACYCLINE]
Not Active: IC50 (Cytochrome P450 2D6) | Ki (Cytochrome P450 2D6) | IC50 [1] | Ki [1] | IC50 [2] | IC50 [3] | Ki [3] | IC50 [4] | Ki [4] | IC50 [5] | IC50 (Adenosine receptor A1)

Cn1c(=O)c2[nH]cnc2n(C)c1=O.Cn1c(=O)c2[nH]cnc2n(C)c1=O.NCCN [AMINOPHYLLINE]
Not Active: IC50 (Cytochrome P450 2D6) | Ki (Cytochrome P450 2D6) | IC50 [1] | Ki [1] | IC50 [2] | IC50 [3] | Ki [3] | IC50 [4] | Ki [4] | IC50 [5] | IC50 (Adenosine receptor A1)

C[C@H]1O[C@@H](n2cc(F)c(=O)[nH]c2=O)[C@H](O)[C@@H]1O [DOXIFLURIDINE]
Not Active: IC50 (Cytochrome P450 2D6) | Ki (Cytochrome P450 2D6) | IC50 [1] | Ki [1] | IC50 [2] | IC50 [3] | Ki [3] | IC50 [4] | Ki [4] | IC50 [5] | IC50 (Adenosine receptor A1)

CC(C(=O)O)c1ccc2oc(-c3ccc(Cl)cc3)nc2c1 (stereo not drawn) [BENOXAPROFEN]
Not Active: IC50 (Cytochrome P450 2D6) | Ki (Cytochrome P450 2D6) | IC50 [1] | Ki [1] | IC50 [2] | IC50 [3] | Ki [3] | IC50 [4] | Ki [4] | IC50 [5] | IC50 (Adenosine receptor A1)

Oc1c(Cl)cc(Cl)c(Cl)c1Cc1c(O)c(Cl)cc(Cl)c1Cl [HEXACHLOROPHENE]
Not Active: IC50 (Cytochrome P450 2D6) | Ki (Cytochrome P450 2D6) | IC50 [1] | Ki [1] | IC50 [2] | IC50 [3] | Ki [3] | IC50 [4] | Ki [4] | IC50 [5] | IC50 (Adenosine receptor A1)

C#C[C@]1(OC(C)=O)CC[C@H]2[C@@H]3CCC4=C[C@@H](OC(C)=O)CC[C@@H]4[C@H]3CC[C@@]21C [ETHYNODIOL DIACETATE]
Not Active: IC50 (Cytochrome P450 2D6) | Ki (Cytochrome P450 2D6) | IC50 [1] | Ki [1] | IC50 [2] | IC50 [3] | Ki [3] | IC50 [4] | Ki [4] | IC50 [5] | IC50 (Adenosine receptor A1)

CCC(=O)O[C@]1(C(=O)CCl)[C@@H](C)C[C@H]2[C@@H]3CCC4=CC(=O)C=C[C@]4(C)[C@@]3(F)[C@@H](O)C[C@@]21C [CLOBETASOL PROPIONATE]
Not Active: IC50 (Cytochrome P450 2D6) | Ki (Cytochrome P450 2D6) | IC50 [1] | Ki [1] | IC50 [2] | IC50 [3] | Ki [3] | IC50 [4] | Ki [4] | IC50 [5] | IC50 (Adenosine receptor A1)

C[C@@H](CO)NC(=O)[C@@H]1C=C2c3cccc4[nH]cc(c34)C[C@H]2N(C)C1 [ERGONOVINE]
Not Active: IC50 (Cytochrome P450 2D6) | Ki (Cytochrome P450 2D6) | IC50 [1] | Ki [1] | IC50 [2] | IC50 [3] | Ki [3] | IC50 [4] | Ki [4] | IC50 [5] | IC50 (Adenosine receptor A1)

Nc1ccc2c3c(cccc13)C(=O)NC2=O
Not Active: IC50 (Cytochrome P450 2D6) | Ki (Cytochrome P450 2D6) | IC50 [1] | Ki [1] | IC50 [2] | IC50 [3] | Ki [3] | IC50 [4] | Ki [4] | IC50 [5] | IC50 (Adenosine receptor A1)

CCN(CC)CCOCCC1=CCC2CC1C2(C)C (stereo not drawn) [MYRTECAINE]
Not Active: IC50 (Cytochrome P450 2D6) | Ki (Cytochrome P450 2D6) | IC50 [1] | Ki [1] | IC50 [2] | IC50 [3] | Ki [3] | IC50 [4] | Ki [4] | IC50 [5] | IC50 (Adenosine receptor A1)

CCCOc1ccc(C(=O)OCCN(CC)CC)cc1N [PROPARACAINE]
Not Active: IC50 (Cytochrome P450 2D6) | Ki (Cytochrome P450 2D6) | IC50 [1] | Ki [1] | IC50 [2] | IC50 [3] | Ki [3] | IC50 [4] | Ki [4] | IC50 [5] | IC50 (Adenosine receptor A1)

O=C(O)c1cccnc1Nc1cccc(C(F)(F)F)c1 [NIFLUMIC ACID]
Not Active: IC50 (Cytochrome P450 2D6) | Ki (Cytochrome P450 2D6) | IC50 [1] | Ki [1] | IC50 [2] | IC50 [3] | Ki [3] | IC50 [4] | Ki [4] | IC50 [5] | IC50 (Adenosine receptor A1)

C#CC1(O)CC[C@H]2[C@@H]3CCC4=CC(=O)CC[C@@H]4[C@H]3CC[C@@]21CC (stereo partly drawn) [NORGESTREL]
Not Active: IC50 (Cytochrome P450 2D6) | Ki (Cytochrome P450 2D6) | IC50 [1] | Ki [1] | IC50 [2] | IC50 [3] | Ki [3] | IC50 [4] | Ki [4] | IC50 [5] | IC50 (Adenosine receptor A1)
